Measured values: patent US20240426807A1, “SCREENING SYSTEM” (Givaudan SA, priority 2021, published 2024)
Entries after “also recorded” stand apart in the source; their conditions may differ.

How the values were obtained:
Format in all cases: cell-based
OR10G7 = target: T1, OR10G7 (Homo sapiens, UniProt Q8NGN6, T5S); assay: Ligand-induced OR-dependent puromycin resistance, OR10G7 cells; details: HEK293T, pGL4.29-CRE-Puro-Hygro-OR with OR10G7; musk ketone 10 μM, eugenol or isoeugenol 1 μM, ultravanil or vanitrope 100 μM; puromycin 0.015-16 μg/ml; PrestoBlue viability day 4
T1 construct: expressed in transfected cells
T1 sequence (Q8NGN6 1-311 T5S): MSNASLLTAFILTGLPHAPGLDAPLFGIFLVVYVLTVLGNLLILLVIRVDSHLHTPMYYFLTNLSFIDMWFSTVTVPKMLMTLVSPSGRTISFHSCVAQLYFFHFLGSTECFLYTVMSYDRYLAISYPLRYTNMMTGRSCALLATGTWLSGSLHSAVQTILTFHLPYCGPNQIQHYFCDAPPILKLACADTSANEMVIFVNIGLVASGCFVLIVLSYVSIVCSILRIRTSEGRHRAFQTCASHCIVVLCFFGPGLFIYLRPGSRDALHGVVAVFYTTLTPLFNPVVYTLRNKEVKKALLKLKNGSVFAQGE
Experimental: (§1) Stable clones selected with hygromycin containing a stable insertion of the pGL4.29-CRE-Puro-Hygro-OR construct described in Example 1 with either one of the receptors OR10G7, OR10G9 or OR5AN1 (NCBI Genbank Gene ID 390265, 219870 and 390195) were plated at a density of 3000 cells/per well in 200 μl Dubelcco's Modified Eagle medium (DMEM) in polyethyleneimide-coated, white 96 well microtiter plates with a transparent bottom. After cells were allowed to adhere for 24 h, they were exposed to different odorants (musk ketone at 10 μM, eugenol or isoeugenol at 1 μM, ultravanil or vanitrope at 100 μM). 7 h after odorant addition, 100 μl of the medium was removed and replaced with fresh medium with the same odorant concentrations and, in addition, puromycin to reach a final concentration of 0.015-16 μg/ml in 11 twofold dilution steps (day 1 of selection). On day 2 and 3, 100 μl of the medium was again removed and replaced with fresh medium with the same concentration of odorant and puromycin. On day 4 of the selection, medium from each well was removed completely, 100 ul PrestoBlue® cell viability reagent (ThermoFisher Scientific, Catalog No: 14200-083) diluted in phosphate buffered saline was added to each well and cells were incubated at 37° C. until a color change was visible in the wells containing no puromycin. The fluorescence was determined at 560 excitation and 590 nm emission to assess relative cell metabolic activity, which is the net result of cell growth and cell killing in presence of the different puromycin concentrations. The result was expressed as % viability relative to controls with no cells (0%) and cells treated with olfactory ligand only (100%).

OR10G9 = target: T2, OR10G9 (Homo sapiens, UniProt Q8NGN4); assay: Ligand-induced OR-dependent puromycin resistance, OR10G9 cells; details: HEK293T, pGL4.29-CRE-Puro-Hygro-OR with OR10G9; musk ketone 10 μM, eugenol or isoeugenol 1 μM, ultravanil or vanitrope 100 μM; puromycin 0.015-16 μg/ml; PrestoBlue viability day 4
T2 construct: expressed in transfected cells
T2 sequence (Q8NGN4 1-311): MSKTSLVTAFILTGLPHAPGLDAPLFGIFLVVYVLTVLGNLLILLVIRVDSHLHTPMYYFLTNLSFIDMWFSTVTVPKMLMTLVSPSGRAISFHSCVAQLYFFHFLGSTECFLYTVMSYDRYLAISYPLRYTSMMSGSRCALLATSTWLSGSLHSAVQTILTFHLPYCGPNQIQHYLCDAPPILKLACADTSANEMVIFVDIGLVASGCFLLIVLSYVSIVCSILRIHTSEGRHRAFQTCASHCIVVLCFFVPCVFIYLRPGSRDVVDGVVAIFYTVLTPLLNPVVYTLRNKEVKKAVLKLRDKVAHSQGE
Experimental: as §1

[1] = target: T3, pool of cells with OR5A1, OR5A2, OR5AN1, OR6Y1, OR10G4, OR10G7 or OR10G9 (Homo sapiens, UniProt Q8NGN3); assay: Selection of cognate-receptor cells from a pool of OR-expressing cells with the target ligand and puromycin; details: 100 μM vanitrope, puromycin 1 μg/ml, pool of 7 OR transfections
T3 construct: expressed in transfected cells; host or cells: HEK293T stably expressing RTP1S and RTP2; 7 separate transfections pooled
T3 sequence (Q8NGN3 1-311): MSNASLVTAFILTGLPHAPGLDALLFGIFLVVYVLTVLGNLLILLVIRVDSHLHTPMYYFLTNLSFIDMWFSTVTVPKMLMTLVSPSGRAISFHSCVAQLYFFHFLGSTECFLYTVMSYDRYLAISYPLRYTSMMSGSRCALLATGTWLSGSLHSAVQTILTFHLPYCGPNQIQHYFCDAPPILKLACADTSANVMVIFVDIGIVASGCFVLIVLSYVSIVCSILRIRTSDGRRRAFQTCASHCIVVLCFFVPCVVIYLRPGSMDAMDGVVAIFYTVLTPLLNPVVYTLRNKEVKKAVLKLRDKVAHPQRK
Experimental: For many ligands the cognate OR receptors are not known (“orphan receptors”), or it is unknown among a pool of receptors, which one has the best affinity for a ligand of interest, e.g. a perfumery note of particular interest. Thus, the ligand-induced selection pressure can be used to enrich a specific OR-expressing cell from a pool of OR-expressing cells in the presence of a ligand of interest. HEK293T cells stably expressing RTP1S and RTP2 were seeded into 7 wells of 6-well plates at 330,000 cells/well.
The next day, the cells of each well were transfected with 2 μg of a PvuI-linearized pGL4.29-CRE-Puro-Hygro-OR construct harboring one of the receptors OR5A1 (NCBI Genbank Gene ID: 219982), OR5A2 (NCBI Genbank Gene ID: 219981), OR5AN1 NCBI Genbank Gene ID: 390195, SEQ ID NO: 70), OR6Y1 (NCBI Genbank Gene ID: 391112), OR10G4 (NCBI Genbank Gene ID: 390264, SEQ ID NO: 72), OR10G7 (NCBI Genbank Gene ID: 390265, SEQ ID NO: 71), or OR10G9 (NCBI Genbank Gene ID: 219870). 24 h after transfection, the cells of all 7 transfections were harvested and pooled. 350 cells of this pool of cells with different OR genes inserted were then seeded into each well of seven 96-well plates.
3 days later, cells were stimulated with ligands for either OR5AN1 (10 μM musk ketone), OR10G7 (1 μM eugenol), or OR10G4 (100 μM vanitrope). One plate was treated with DMSO only. 6h after the addition of the OR ligands, puromycin was added to each plate at a final concentration of 1 μg/ml. On every day during the following week, the medium on all plates was replaced with fresh medium containing the corresponding ligand and puromycin. The plates were then searched for wells containing only a single colony of puromycin-resistant cells. The cells of those colonies were transferred to larger plates and grown until they had multiplied to about 8 Mio cells. The genomic DNA of 2 Mio cells of each clone were isolated using the Puregene kit according to the manufacturer's protocol. […]

OR5A2 (clone 3) = target: T4, OR5A2 (clone 3) (Homo sapiens, UniProt Q8NGI9); assay: Ligand-induced puromycin resistance of isolated clone 3 containing OR5A2; details: for puromycin resistance of clone 3 in presence of odorant: clone 3 (OR5A2), 11 concentrations of puromycin, co-treated with olfactory ligands
T4 construct: expressed in transfected cells; clone 3 selected with musk ambrette and puromycin
T4 sequence (Q8NGI9 with tags, fused parts or gaps): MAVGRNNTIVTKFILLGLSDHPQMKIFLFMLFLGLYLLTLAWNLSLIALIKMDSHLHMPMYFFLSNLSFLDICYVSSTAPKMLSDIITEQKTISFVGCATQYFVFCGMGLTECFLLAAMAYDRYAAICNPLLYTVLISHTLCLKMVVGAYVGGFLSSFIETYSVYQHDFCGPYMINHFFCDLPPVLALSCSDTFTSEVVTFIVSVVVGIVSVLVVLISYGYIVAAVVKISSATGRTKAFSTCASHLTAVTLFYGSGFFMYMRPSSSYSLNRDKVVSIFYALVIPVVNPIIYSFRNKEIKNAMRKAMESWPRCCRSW

OR5AN1 [2] = target: T5, OR5AN1 (Homo sapiens, UniProt Q8NGI8); assay: Ligand-induced OR-dependent puromycin resistance, OR5AN1 cells; details: HEK293T, pGL4.29-CRE-Puro-Hygro-OR with OR5AN1; musk ketone 10 μM, eugenol or isoeugenol 1 μM, ultravanil 100 μM; puromycin 0.015-16 μg/ml; PrestoBlue viability day 4
T5 construct: expressed in transfected cells
T5 sequence (Q8NGI8 1-311): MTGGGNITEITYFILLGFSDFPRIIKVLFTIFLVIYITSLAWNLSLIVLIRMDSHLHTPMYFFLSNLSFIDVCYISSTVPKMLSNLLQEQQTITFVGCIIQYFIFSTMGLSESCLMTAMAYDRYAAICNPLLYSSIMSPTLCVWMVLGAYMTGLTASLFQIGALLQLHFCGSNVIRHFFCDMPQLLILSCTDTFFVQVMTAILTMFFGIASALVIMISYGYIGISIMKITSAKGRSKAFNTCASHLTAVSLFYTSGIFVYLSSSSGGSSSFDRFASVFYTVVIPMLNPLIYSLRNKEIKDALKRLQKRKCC
Experimental: as §1

OR5AN1 [3] = target: T5, OR5AN1; assay: Ligand-induced blasticidin resistance, OR5AN1 cells (pGL4.29-CRE-BLAST-OR); details: HEK293T OR5AN1, odorant 10 μM, blasticidin 0.5-256 μg/ml, PrestoBlue viability day 4
Excerpt: To generate a vector allowing positive selection of cell clones with a functional expression of a specific OR gene, a blasticidin resistance gene was placed downstream of SEQ ID NO: 4. The pGL4.29-CRE-Puro-OR vector generated as described in Example 1 was digested with BgIII and FseI to remove the comprised basal promoter and the complete puromycin resistance gene. The removed basal promoter sequence was amplified with the primers […] (SEQ ID NO: 28), […] (SEQ ID NO: 63), and the blasticidin S deaminase (bsd, SEQ ID NO: 64) encoding sequence was amplified by PCR using the primers […] (SEQ ID NO: 66) […] (SEQ ID NO: 67). The two overlapping PCR products were joined by fusion PCR using primers […] (SEQ ID NO: 28) and […] (SEQ ID NO: 68). The resulting DNA fragment was digested with BgIII/FseI and ligated into the digested vector to generate pGL4.29-CRE-Blast-OR.
This vector was used to generate stable cell lines as described in Example 1.
Stable clones containing a stable insertion of the pGL4.29-CRE-BLAST-OR construct with the receptor OR5AN1 (NCBI Genbank Gene ID: 390195) were then plated at a density of 3000 cells/per well in 100 μl Dubelcco's Modified Eagle medium (DMEM) in polyethyleneimide-coated, white 96 well microtiter plates with a transparent bottom. After cells were allowed to adhere for 24 h, 50 μl of medium containing different odorants (musk ketone or ethyl vanillin at 40 μM) was added to each well resulting in an odorant concentration of 13.3 μM. 6 h after odorant addition, 50 μl of medium containing blasticidin was added to reach a final concentration of 0.5-256 μg/ml in 10 two-fold dilution steps (day 1 of selection). This step further diluted the odorant to 10 μM. On day 4 of the selection (72 h after blasticidin addition), medium from each well was removed completely, 100 μl PrestoBlue® cell viability reagent (ThermoFisher Scientific, Catalog No: 14200-083) diluted in phosphate buffered saline containing 1 mg/ml glucose was added to each well and cells were incubated at 37° C. until a color change was visible in the wells containing no blasticidin. The fluorescence was determined at 560 excitation and 590 nm emission to assess relative cell metabolic activity, which is the net result of cell growth and cell killing in presence of the different blasticidin concentrations. The result was expressed as % viability relative to controls with no cells (0%) and cells treated with olfactory ligand only (100%).

| SMILES | puromycin resistance in presence of odorant versus solvent control (OR10G7) | puromycin resistance in presence of odorant versus solvent control (OR10G9) | puromycin resistance of clone 3 in presence of odorant (OR5A2 (clone 3)) | puromycin resistance in presence of odorant versus solvent control (OR5AN1 [2]) | also measured |
| --- | --- | --- | --- | --- | --- |
| C/C=C/c1ccc(OCC)c(O)c1 [vanitrope, propenyl guaethol] | increased resistance to puromycin; also recorded: strongly enhanced puromycin resistance | increased resistance to puromycin; also recorded: selectively enhanced resistance |  |  | colonies selected with the ligand that contained OR10G4 [1]: 8 out of 8 |
| COc1c(C(C)(C)C)cc([N+](=O)[O-])c(C)c1[N+](=O)[O-] [musk ambrette] |  |  | increased resistance to puromycin |  | survival of clone 3 under puromycin treatment with ligand (OR5A2 (clone 3); musk ambrette 30 μM, puromycin 3 μg/ml, continuous exposure): able to survive puromycin treatment in presence of the ligand musk ambrette but not in its absence |
| CCOc1cc(C)ccc1O [ultravanil, vanilla cresol] | increased resistance to puromycin; also recorded: strongly enhanced puromycin resistance | increased resistance to puromycin; also recorded: selectively enhanced resistance |  | do not increase resistance over solvent control; also recorded: the resistance was equal to the solvent control |  |
| CC=Cc1ccc(O)c(OC)c1 [isoeugenol] | increased resistance to puromycin; also recorded: strongly enhanced puromycin resistance | no increased resistance |  | do not increase resistance over solvent control; also recorded: the resistance was equal to the solvent control |  |
| CCOc1cc(C=O)ccc1O [ethyl vanillin] |  |  |  |  | blasticidin resistance in presence of odorant versus solvent control (OR5AN1 [3]): equally sensitive to blasticidin as in presence of the solvent control; blasticidin resistance in presence of odorant versus solvent control (OR5AN1 [3]; listed as ethylvanillin): does not increase resistance over solvent control |
| CC(OC(C)(C)COC(=O)C1CC1)C1CCCC(C)(C)C1 (centres unmarked) [serenolide] |  |  | increased resistance to puromycin |  |  |
